# Data published in patent US20190388425A1, “SUBSTITUTED IMIDAZOPYRIDINPYRIMIDINES” (Bayer Pharma Aktiengesellschaft, priority 2017, published 2019).
# Like-named read-outs stand apart in the source and are kept apart here.
# Target: T1, human full-length MKNK1 (Homo sapiens, UniProt Q9BUB5, T385D)
# T1 construct: GST (N); purchased Carna Biosciences 02-145; host or cells: insect cells (baculovirus expression system)
# Assay: MKNK1 kinase high ATP assay (TR-FRET)
# Format: biochemical
# Protocol: MKNK1 Kinase High ATP Assay
# MKNK1-inhibitory activity at high ATP of compounds of the present invention after their preincubation with MKNK1 was quantified employing the TR-FRET-based MKNK1 high ATP assay as described in the following paragraphs.
# As substrate for the kinase reaction the biotinylated peptide biotin-Ahx-[…] (C-terminus in amide form) was used, which can be purchased e.g. from the company Biosyntan (Berlin-Buch, Germany).
# For the assay 50 nL of a 100 fold concentrated solution of the test compound in DMSO was pipetted into a black low volume 384 well microtiter plate (Greiner Bio-One, Frickenhausen, Germany), 2 μL of a solution of MKNK1 in aqueous assay buffer [50 mM HEPES pH 7.5, 5 mM MgCl2, 1.0 mM dithiothreitol, 0.005% (v/v) Nonidet-P40 (Sigma)] was added and the mixture was incubated for 15 min at 22° C. to allow pre-binding of the test compounds to the enzyme before the start of the kinase reaction. Then the kinase reaction was started by the addition of 3 μL of a solution of adenosine-tri-phosphate (ATP, 3.3 mM=>final conc. in the 5 μL assay volume is 2 mM) and substrate (0.1 μM=>final conc. in the 5 μL assay volume is 0.06 μM) in assay buffer and the resulting mixture was incubated for a reaction time of 30 min at 22° C. The concentration of MKNK1 was adjusted depending of the activity of the enzyme lot and was chosen appropriate to have the assay in the linear range, typical concentrations were in the range of 0.003 μg/mL. The reaction was stopped by the addition of 5 μL of a solution of TR-FRET detection reagents (5 nM streptavidine-XL665 [Cisbio Bioassays, Codolet, France] and 1 nM anti-ribosomal protein S6 (pSer236)-antibody from Invitrogen [#44921G] and 1 nM LANCE EU-W1024 labeled ProteinG [Perkin-Elmer, product no. AD0071]) in an aqueous EDTA-solution (100 mM EDTA, 0.1% (w/v) bovine serum albumin in 50 mM HEPES pH 7.5).
# The resulting mixture was incubated for 1 h at 22° C. to allow the formation of complex between the phosphorylated biotinylated peptide and the detection reagents. Subsequently the amount of phosphorylated substrate was evaluated by measurement of the resonance energy transfer from the Eu-chelate to the streptavidine-XL. Therefore, the fluorescence emissions at 620 nm and 665 nm after excitation at 350 nm were measured in a TR-FRET reader, e.g. a Rubystar (BMG Labtechnologies, Offenburg, Germany) or a Viewlux (Perkin-Elmer). The ratio of the emissions at 665 nm and at 622 nm was taken as the measure for the amount of phosphorylated substrate.
# [1] = TR-FRET, 2 mM ATP (high ATP), 15 min preincubation with enzyme, 30 min reaction at 22° C., read-out: MKNK1 IC50
# T1 sequence (Q9BUB5 1-424 isoform Q9BUB5-2 T344D): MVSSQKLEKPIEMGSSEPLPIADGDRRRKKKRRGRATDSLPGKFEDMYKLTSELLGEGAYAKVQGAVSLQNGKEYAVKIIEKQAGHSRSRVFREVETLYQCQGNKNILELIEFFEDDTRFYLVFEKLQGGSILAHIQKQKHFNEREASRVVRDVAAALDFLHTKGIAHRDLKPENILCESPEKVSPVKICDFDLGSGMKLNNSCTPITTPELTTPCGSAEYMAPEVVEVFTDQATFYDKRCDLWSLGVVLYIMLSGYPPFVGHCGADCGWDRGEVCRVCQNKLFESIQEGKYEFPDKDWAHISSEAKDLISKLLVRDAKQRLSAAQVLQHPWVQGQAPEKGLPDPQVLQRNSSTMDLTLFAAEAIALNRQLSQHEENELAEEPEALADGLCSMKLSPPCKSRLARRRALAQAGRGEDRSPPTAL
SMILES,IC50 [1] [nM],IC50 [nM]
"Cc1cc(Nc2ncnc3sc4c(c23)CC[C@H](C(=O)O)C4)c(=O)n2c1C(=O)NC21CCCCC1 [Example 1, (7S)-4-[(8′-Methyl-1′,5′-dioxo-1′,5′-dihydro-2′H-spiro[cyclohexane-1,3′-imidazo[1,5-a]pyridin]-6′-yl)amino]-5,6,7,8-tetrahydro[1]benzothieno[2,3-d]pyrimidine-7-carboxylic acid]",9,
"Cc1cc(Nc2ncnc3sc4c(c23)CC[C@H](C(=O)N(C)C)C4)c(=O)n2c1C(=O)NC21CCCCC1 [Example 2, (7S)—N, N-Dimethyl-4-[(8′-methyl-1′,5′-dioxo-1′,5′-dihydro-2′H-spiro[cyclohexane-1,3′-imidazo[1,5-a]pyridin]-6′-yl)amino]-5,6,7,8-tetrahydro[1]benzothieno[2,3-d]pyrimidine-7-carboxamide]",0.2,
"Cc1cc(Nc2ncnc3sc4c(c23)CC[C@H](C(=O)N2CCC2)C4)c(=O)n2c1C(=O)NC21CCCCC1 [Example 3, 6′-{[(7S)-7-(Azetidin-1-ylcarbonyl)-5,6,7,8-tetrahydro[1]benzothieno[2,3-d]pyrimidin-4-yl]amino}-8′-methyl-2′H-spiro[cyclohexane-1,3′-imidazo[1,5-a]pyridine]-1′,5′-dione]",0.3,
"CNC(=O)[C@H]1CCc2c(sc3ncnc(Nc4cc(C)c5n(c4=O)C4(CCCCC4)NC5=O)c23)C1 [Example 4, (7S)—N-Methyl-4-[(8′-methyl-1′,5′-dioxo-1′,5′-dihydro-2′H-spiro[cyclohexane-1,3′-imidazo[1,5-a]pyridin]-6′-yl)amino]-5,6,7,8-tetrahydro[1]benzothieno[2,3-d]pyrimidine-7-carboxamide]",0.4,
"Cc1cc(Nc2ncnc3sc4c(c23)CC[C@H](C(=O)N2CC(C#N)C2)C4)c(=O)n2c1C(=O)NC21CCCCC1 [Example 5, 1-({(7S)-4-[(8′-Methyl-1′,5′-dioxo-1′,5′-dihydro-2′H-spiro[cyclohexane-1,3′-imidazo[1,5-a]pyridin]-6′-yl)amino]-5,6,7,8-tetrahydro[1]benzothieno[2,3-d]pyrimidin-7-yl}carbonyl)azetidine-3-carbonitrile]",1.1,
"Cc1cc(Nc2ncnc3sc4c(c23)CC[C@H](C(=O)N2CC(C)(O)C2)C4)c(=O)n2c1C(=O)NC21CCCCC1 [Example 6, 6′-({(7S)-7-[(3-Hydroxy-3-methylazetidin-1-yl)carbonyl]-5,6,7,8-tetrahydro[1]benzothieno[2,3-d]pyrimidin-4-yl}amino)-8′-methyl-2′H-spiro[cyclohexane-1,3′-imidazo[1,5-a]pyridine]-1′,5′-dione]",1.5,
"Cc1cc(Nc2ncnc3sc4c(c23)CC[C@H](C(=O)N2CC(NC(=O)OC(C)(C)C)C2)C4)c(=O)n2c1C(=O)NC21CCCCC1 [Example 7, tert-Butyl [1-({(7S)-4-[(8′-methyl-1′,5′-dioxo-1′,5′-dihydro-2′H-spiro[cyclohexane-1,3′-imidazo[1,5-a]pyridin]-6′-yl)amino]-5,6,7,8-tetrahydro[1]benzothieno[2,3-d]pyrimidin-7-yl}carbonyl)azetidin-3-yl]carbamate]",4.2,
"Cc1cc(Nc2ncnc3sc4c(c23)CC[C@H](C(=O)N2C[C@H]3C[C@@H]2CO3)C4)c(=O)n2c1C(=O)NC21CCCCC1 [Example 8, 8′-Methyl-6′-({(7S)-7-[(1R,4R)-2-oxa-5-azabicyclo[2.2.1]hept-5-ylcarbonyl]-5,6,7,8-tetrahydro[1]benzothieno[2,3-d]pyrimidin-4-yl}amino)-2′H-spiro[cyclohexane-1,3′-imidazo[1,5-a]pyridine]-1′,5′-dione]",0.6,
"Cc1cc(Nc2ncnc3sc4c(c23)CC[C@H](C(=O)N2CC[C@H](N(C)C)C2)C4)c(=O)n2c1C(=O)NC21CCCCC1 [Example 9, 6′-{[(7S)-7-{[(3S)-3-(Dimethylamino)pyrrolidin-1-yl]carbonyl}-5,6,7,8-tetrahydro[1]benzothieno[2,3-d]pyrimidin-4-yl]amino}-8′-methyl-2′H-spiro[cyclohexane-1,3′-imidazo[1,5-a]pyridine]-1′,5′-dione]",0.1,
"Cc1cc(Nc2ncnc3sc4c(c23)CC[C@H](C(=O)N2CCC(=O)CC2)C4)c(=O)n2c1C(=O)NC21CCCCC1 [Example 10, 8′-Methyl-6′-({(7S)-7-[(4-oxopiperidin-1-yl)carbonyl]-5,6,7,8-tetrahydro[1]benzothieno[2,3-d]pyrimidin-4-yl}amino)-2′H-spiro[cyclohexane-1,3′-imidazo[1,5-a]pyridine]-1′,5′-dione]",,0.3
"Cc1cc(Nc2ncnc3sc4c(c23)CC[C@H](C(=O)N2CC(N)C2)C4)c(=O)n2c1C(=O)NC21CCCCC1 [Example 11, 6′-({(7S)-7-[(3-Aminoazetidin-1-yl)carbonyl]-5,6,7,8-tetrahydro[1]benzothieno[2,3-d]pyrimidin-4-yl}amino)-8′-methyl-2′H-spiro[cyclohexane-1,3′-imidazo[1,5-a]pyridine]-1′,5′-dione]",0.5,
"Cc1cc(Nc2ncnc3sc4c(c23)CC[C@H](C(=O)N(C)CCN(C)C)C4)c(=O)n2c1C(=O)NC21CCCCC1 [Example 12, (7S)—N-[2-(Dimethylamino)ethyl]-N-methyl-4-[(8′-methyl-1′,5′-dioxo-1′,5′-dihydro-2′H-spiro[cyclohexane-1,3′-imidazo[1,5-a]pyridin]-6′-yl)amino]-5,6,7,8-tetrahydro[1]benzothieno[2,3-d]pyrimidine-7-carboxamide]",0.2,
"Cc1cc(Nc2ncnc3sc4c(c23)CC[C@H](C(=O)N2C3CCC2CC(=O)C3)C4)c(=O)n2c1C(=O)NC21CCCCC1 [Example 13, 8′-Methyl-6′-({(7S)-7-[(3-oxo-8-azabicyclo[3.2.1]oct-8-yl)carbonyl]-5,6,7,8-tetrahydro[1]benzothieno[2,3-d]pyrimidin-4-yl}amino)-2′H-spiro[cyclohexane-1,3′-imidazo[1,5-a]pyridine]-1′,5′-dione]",0.4,
"Cc1cc(Nc2ncnc3sc4c(c23)CC[C@H](C(=O)N2CCN(C)[C@@H](C)C2)C4)c(=O)n2c1C(=O)NC21CCCCC1 [Example 14, 6′-{[(7S)-7-{[(3S)-3,4-Dimethylpiperazin-1-yl]carbonyl}-5,6,7,8-tetrahydro[1]benzothieno[2,3-d]pyrimidin-4-yl]amino}-8′-methyl-2′H-spiro[cyclohexane-1,3′-imidazo[1,5-a]pyridine]-1′,5′-dione]",0.8,
"Cc1cc(Nc2ncnc3sc4c(c23)CC[C@H](C(=O)O)C4)c(=O)n2c1C(=O)NC2(C)C [Example 15, (7S)-4-[(3,3,8-Trimethyl-1,5-dioxo-1,2,3,5-tetrahydroimidazo[1,5-a]pyridin-6-yl)amino]-5,6,7,8-tetrahydro[1]benzothieno[2,3-d]pyrimidine-7-carboxylic acid]",15.6,
"Cc1cc(Nc2ncnc3sc4c(c23)CC[C@H](C(=O)O)C4)c(=O)n2c1C(=O)NC21CCC1 [Example 16, (7S)-4-[(8′-Methyl-1′,5′-dioxo-1′,5′-dihydro-2′H-spiro[cyclobutane-1,3′-imidazo[1,5-a]pyridin]-6′-yl)amino]-5,6,7,8-tetrahydro[1]benzothieno[2,3-d]pyrimidine-7-carboxylic acid]",3.9,
"Cc1cc(Nc2ncnc3sc4c(c23)CC[C@H](C(N)=O)C4)c(=O)n2c1C(=O)NC21CCCCC1 [Example 17, (7S)-4-[(8′-Methyl-1′,5′-dioxo-1′,5′-dihydro-2′H-spiro[cyclohexane-1,3′-imidazo[1,5-a]pyridin]-6′-yl)amino]-5,6,7,8-tetrahydro[1]benzothieno[2,3-d]pyrimidine-7-carboxamide]",0.5,
"Cc1cc(Nc2ncnc3sc4c(c23)CC[C@H](C(=O)N2CCOC[C@H]2C)C4)c(=O)n2c1C(=O)NC21CCCCC1 [Example 18, 8′-methyl-6′-{[(7S)-7-{[(3R)-3-methylmorpholin-4-yl]carbonyl}-5,6,7,8-tetrahydro[1]benzothieno[2,3-d]pyrimidin-4-yl]amino}-2′H-spiro[cyclohexane-1,3′-imidazo[1,5-a]pyridine]-1′,5′-dione]",0.3,
"Cc1cc(Nc2ncnc3sc4c(c23)CC[C@H](C(=O)N2CC(N(C)C)C2)C4)c(=O)n2c1C(=O)NC21CCCCC1 [Example 19, 6′-{[(7S)-7-{[3-(Dimethylamino)azetidin-1-yl]carbonyl}-5,6,7,8-tetrahydro[1]benzothieno[2,3-d]pyrimidin-4-yl]amino}-8′-methyl-2′H-spiro[cyclohexane-1,3′-imidazo[1,5-a]pyridine]-1′,5′-dione]",0.9,
